Measurements from patent US7504362B2, “Pesticidal compositions” (Merial Limited, priority 2002, dated 2009).

test system: Ctenocephalides felis, Diabrotica undecimpunctata, Nephotettix cincticeps or Rhipicephalus sanguineus; assay: Pooled statement: active in one or more of the above tests (Methods A to E); format: in vivo; details: active = reaching the threshold of Method A, B, C, D or E; test not given per compound
Method: The following representative test procedures, using compounds of the invention, were conducted to determine the parasiticidal and pesticidal activity of compounds of the invention.
A test container was filled with 10 adults of Ctenocephalides felis. A glass cylinder was closed on one end with parafilm and placed on top of the test container. The test compound solution was then pipetted into bovine blood and added to the glass cylinder. The treated Ctenocephalides felis were held in this artificial dog test (blood 37° C., 40-60% relative humidity; Ctenocephalides felis 20-22° C., 40-60% relative humidity) and assessment performed at 24 and 48 hours after application. Active compounds gave at least 90% control of Ctenocephalides felis at a test concentration of 5 ppm or less.
Two days before application, seeds of maize were soaked in water under warm conditions to elicit fast germination. One day before application, eggs of Diabrotica undecimpunctata were transferred to one half of a Japanese filter paper placed in a plastic petri dish. Afterwards, a sprouted maize seed was placed on a moistened pad beside the filter paper. Three drops of 200 microliters of test compound solution were carefully pipetted onto the egg. The remainder of the solution was placed on the maize and then the Petri dish was closed. The treated eggs in the Petri dishes were held in a climate chamber for 6 days. The compound efficacy (percentage of dead eggs and/or larvae in comparison to untreated control) was assessed 6 days after application using a binocular microscope.
Active compounds gave at least 90% control of Diabrotica undecimpunctata at a test concentration of 10 ppm.
The leaves of 12 rice plants having a stem length of 8 cm were dipped for 5 seconds into an aqueous solution of the formulated test compound. After the solution had run off, the rice plants treated in this manner were placed in a Petri dish and populated with about 20 larvae (L3 stage) of Nephotettix cincticeps. The Petri dish was closed and then stored in a climate chamber (16 hours of light/day, 25° C., 40-60% relative humidity). After 6 days storage, the percentage mortality of leafhopper larvae was determined.
Active compounds gave at least 98% mortality of Nephotettix cinciceps larvae at a test concentration of 100 ppm.
Solutions of the test compounds were dropped onto filter paper, dried and the filter paper placed into test tubes and infested with 10 adults of Ctenocephalides felis. The treated Ctenocephalides felis were held in a climate chamber (26° C., 80% RH) and the percentage efficacy assessed 24 hours and 48 hours after application in comparison with the untreated control.
Active compounds gave at least 70% contact control of Ctenocephalides felis at a test concentration of 1000 ppm.
Solutions of the test compounds were dropped onto filter paper, dried and the filter paper placed into test tubes and infested with 20-30 larvae (L1) of Rhipicephalus sanguineus and the tubes closed with a clip. The treated Rhipicephalus sanguineus were held in a climate chamber (25° C., 90% RH) and the percentage efficacy assessed 24 hours after application in comparison with the untreated control. Active compounds gave at least 70% contact control of Rhipicephalus sanguineus at a test concentration of 100 ppm.

Question: How did the “active in one or more of the above tests” value turn out when `CN(c1c([S+]([O-])C(F)(F)F)c(C#N)nn1-c1c(Cl)cc(C(F)(F)F)cc1Cl)S(=O)(=O)Cc1ccc(Cl)s1` (stereo not shown) [Compound 4-35] was run?
Answer: active

Question: `CN(c1c(SC(F)(F)F)c(C#N)nn1-c1c(Cl)cc(C(F)(F)F)cc1Cl)S(=O)(=O)c1ccc(C(F)(F)F)cc1` [Compound 5-16] was tested. Which “active in one or more of the above tests” value did it give?
Answer: active

Question: For `C=CS(=O)(=O)N(C)c1c([S+]([O-])C(F)(F)F)c(C#N)nn1-c1c(Cl)cc(C(F)(F)F)cc1Cl` (stereo not shown) [Compound 1-97], which “active in one or more of the above tests” value is on record?
Answer: active

Question: With `CCCCS(=O)(=O)N(C)c1c(S(=O)(=O)C(F)(F)F)c(C#N)nn1-c1c(Cl)cc(C(F)(F)F)cc1Cl` [Compound 1-120] as the compound, how does the “active in one or more of the above tests” value read?
Answer: active

Question: Which “active in one or more of the above tests” value does the source give for `CN(c1c([S+]([O-])C(F)(F)F)c(C#N)nn1-c1c(Cl)cc(C(F)(F)F)cc1Cl)S(=O)(=O)C(F)(F)F` (stereo not shown) [Compound 1-90] here?
Answer: active

Question: For `Cc1ccc(S(=O)(=O)N(C)c2c(SC(F)(F)F)c(C#N)nn2-c2c(Cl)cc(C(F)(F)F)cc2Cl)cc1` [Compound 5-32], which “active in one or more of the above tests” value is on record?
Answer: active

Question: `CN(c1c(S(=O)(=O)C(F)(F)F)c(C#N)nn1-c1c(Cl)cc(C(F)(F)F)cc1Cl)S(=O)(=O)Cc1cc(C(F)(F)F)cc(C(F)(F)F)c1` [Compound 2-129] was tested. Which “active in one or more of the above tests” value did it give?
Answer: active

Question: How did the “active in one or more of the above tests” value turn out when `CN(c1c([S+]([O-])C(F)(F)F)c(C#N)nn1-c1c(Cl)cc(C(F)(F)F)cc1Cl)S(=O)(=O)c1ccc(C(F)(F)F)cc1` (stereo not shown) [Compound 5-61] was run?
Answer: active

Question: For `CN(c1c(SC(F)(F)F)c(C#N)nn1-c1c(Cl)cc(C(F)(F)F)cc1Cl)S(=O)(=O)Cc1cccc(C(F)(F)F)c1` [Compound 2-57], which “active in one or more of the above tests” value is on record?
Answer: active

Question: For `CN(c1c(SC(F)(F)F)c(C#N)nn1-c1c(Cl)cc(C(F)(F)F)cc1Cl)S(=O)(=O)c1cccc(C(F)(F)F)c1` [Compound 5-15], which “active in one or more of the above tests” value is on record?
Answer: active

Question: `CCS(=O)(=O)Nc1c([S+]([O-])C(F)(F)F)c(C#N)nn1-c1c(Cl)cc(C(F)(F)F)cc1Cl` (stereo not shown) [Compound 1-117] was tested. Which “active in one or more of the above tests” value did it give?
Answer: active

Question: For `CN(c1c(S(=O)(=O)C(F)(F)F)c(C#N)nn1-c1c(Cl)cc(C(F)(F)F)cc1Cl)S(=O)(=O)Cc1ccc(F)cc1` [Compound 2-121], which “active in one or more of the above tests” value is on record?
Answer: active

Question: For `CN(c1c(SC(F)(F)F)c(C#N)nn1-c1c(Cl)cc(C(F)(F)F)cc1Cl)S(=O)(=O)Cc1ccc(Cl)s1` [Compound 4-32], which “active in one or more of the above tests” value is on record?
Answer: active

Question: For `CN(c1c(S(=O)(=O)C(F)(F)F)c(C#N)nn1-c1c(Cl)cc(C(F)(F)F)cc1Cl)S(=O)(=O)Cc1cccc(C(F)(F)F)c1` [Compound 2-127], which “active in one or more of the above tests” value is on record?
Answer: active

Question: `CN(c1c([S+]([O-])C(F)(F)F)c(C#N)nn1-c1c(Cl)cc(C(F)(F)F)cc1Cl)S(=O)(=O)c1ccccc1Cl` (stereo not shown) [Compound 5-46] was tested. Which “active in one or more of the above tests” value did it give?
Answer: active

Question: How did the “active in one or more of the above tests” value turn out when `CN(c1c(S(=O)(=O)C(F)(F)F)c(C#N)nn1-c1c(Cl)cc(C(F)(F)F)cc1Cl)S(=O)(=O)C=Cc1ccccc1` [Compound 1-115] was run?
Answer: active

Question: For `CN(c1c([S+]([O-])C(F)(F)F)c(C#N)nn1-c1c(Cl)cc(C(F)(F)F)cc1Cl)S(=O)(=O)Cc1ccccc1` (stereo not shown) [Compound 2-16, 1-(2,6-Dichloro-4-trifluoromethylphenyl)-3-cyano-5-(N-benzylsulfonyl-N-methylamino)-4-trifluoromethylsulfinylpyrazole], which “active in one or more of the above tests” value is on record?
Answer: active

Question: Which “active in one or more of the above tests” value does the source give for `CN(c1c(S(=O)(=O)C(F)(F)F)c(C#N)nn1-c1c(Cl)cc(C(F)(F)F)cc1Cl)S(=O)(=O)Cc1ccc(Cl)cc1` [Compound 2-115] here?
Answer: active

Question: `CS(=O)(=O)Nc1c(SC(F)(F)F)c(C#N)nn1-c1c(Cl)cc(C(F)(F)F)cc1Cl` [Compound 1-1] was tested. Which “active in one or more of the above tests” value did it give?
Answer: active
